Activity calls are given as the source filed them. The rule behind the calls is not given here.

The test system of data set [1] is RAW264.7. Put plainly: Inhibition of LPS-induced iNOS expression in mouse RAW264.7 cells at up to 30 ug/ml treated 1 hr before LPS challenge measured after 6 hrs by immunoblotting. The data set is classed as functional, cell-based. Background: Immunoblotting shows a protein as a band on a membrane.
In data set [2] the target is Transcription factor p65 (Homo sapiens) (UniProt Q04206). The data set can be described thus: Binding affinity to recombinant NF-kappaB transcription factor p65 subunit (1-325) at 4 equiv mol concentration after 1 hr by MALDI-TOF MS analysis.
Transcription factor p65 (Homo sapiens), sequence (Q04206 whole entry): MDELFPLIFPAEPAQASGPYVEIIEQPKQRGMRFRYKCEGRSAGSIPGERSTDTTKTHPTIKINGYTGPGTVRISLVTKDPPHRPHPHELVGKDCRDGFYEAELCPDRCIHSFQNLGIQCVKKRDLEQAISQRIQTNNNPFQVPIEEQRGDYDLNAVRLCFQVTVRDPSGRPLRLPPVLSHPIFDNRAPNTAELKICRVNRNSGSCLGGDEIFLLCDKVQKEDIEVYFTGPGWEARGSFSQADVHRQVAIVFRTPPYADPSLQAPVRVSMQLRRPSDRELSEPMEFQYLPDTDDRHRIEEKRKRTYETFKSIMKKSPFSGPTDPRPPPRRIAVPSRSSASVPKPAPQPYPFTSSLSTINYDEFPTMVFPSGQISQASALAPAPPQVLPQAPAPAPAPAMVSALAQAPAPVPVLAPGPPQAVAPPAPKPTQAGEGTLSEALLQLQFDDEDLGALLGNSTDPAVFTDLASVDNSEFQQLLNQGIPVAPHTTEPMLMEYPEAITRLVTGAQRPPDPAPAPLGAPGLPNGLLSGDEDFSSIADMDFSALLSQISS
Data set [3] relates to RAW264.7. The data set can be described thus: Inhibition of LPS-induced NF-kappaB activation in mouse RAW264.7 cells at up to 30 ug/ml after 30 mins by electrophoretic mobility shift assay. The data set is classed as cell-based. Background: A gel shift assay detects complexes by their altered migration in electrophoresis.
Data set [4] relates to RAW264.7. Put plainly: Cytotoxicity in mouse RAW264.7 cells at 30 ug/ml after 24 hrs by MTT assay. It counts as cell-based. The note with it: raw264.7, 24 h.
Data set [5] has as its system RAW264.7. Put plainly: Inhibition of LPS-induced nitric oxide production in mouse RAW264.7 cells treated 1 hr before LPS challenge measured after 24 hrs by Griess reaction. The data set is classed as functional, cell-based. (Nitrite, measured by Griess reagent, commonly stands in for NO production.)

Consider `C=CCOC(=O)NC1=CC(=O)[C@H]2O[C@H]2[C@H]1O` (relative stereo), for which, in the data set with RAW264.7 [1], the inhibition result is “Active”. Further, the outcome in data set [2] was Active.

As to `C=CCOC(=O)NC1=CC(=O)[C@H]2O[C@H]2[C@@H]1O` (relative stereo), the inhibition entry with RAW264.7 [3] and in the data set with RAW264.7 [1] was “Active” each time. Also, in the data set with RAW264.7 [4], the Activity result is “Toxic”. In addition, the inhibition entry with RAW264.7 [5] was “Dose-dependent effect”. Further, the outcome in data set [2] was inactive.

The values are drawn from ChEMBL document CHEMBL1255561, “A new NF-κB inhibitor based on the amino-epoxyquinol core of DHMEQ” (Bioorg Med Chem Lett, 2010).
